{
  "source": "patent US8932597B2",
  "about": "(priority 2008, dated 2015)",
  "data": [
    {"tested_on": "HuM2e antibody 23K12", "type": "binding, human", "values": [
      {"substance": "604 (SLCTEVGSCLTEV; epitope peptide) [compound 604]", "Signal (peptides that bind to 23K21 and 8I10)": 824},
      {"substance": "374 (SLLTECGCSLLTEC; epitope peptide) [compound 374]", "Signal (peptides that bind to 23K21 and 8I10)": 1451},
      {"substance": "466 (SCLTEVGCSLLTEV; epitope peptide) [compound 466]", "Signal (peptides that bind to 23K21 and 8I10)": 1250},
      {"substance": "462 (SLLTECGCLLTEV; epitope peptide) [compound 462]", "Signal (peptides that bind to 23K21 and 8I10)": 1259},
      {"substance": "498 (SLLTEMETPIRNEWGCRCNDSSD; epitope peptide) [compound 498]", "Signal (peptides that bind to 23K21 and 8I10)": 1076},
      {"substance": "306 (CSLLTECGMSLLTCV; epitope peptide) [compound 306]", "Signal (peptides that bind to 23K21 and 8I10)": 1918},
      {"substance": "539 (SLLTEYETPIRNEWGCRCNDSSD; epitope peptide) [compound 539]", "Signal (peptides that bind to 23K21 and 8I10)": 950},
      {"substance": "655 (SLYTEVETPIRNEWGCRCNDSSD; epitope peptide) [compound 655]", "Signal (peptides that bind to 23K21 and 8I10)": 753},
      {"substance": "455 (CLCTCVGSLLTEC; epitope peptide) [compound 455]", "Signal (peptides that bind to 23K21 and 8I10)": 1303},
      {"substance": "483 (CSLLTECGCSLLTEC; epitope peptide) [compound 483]", "Signal (peptides that bind to 23K21 and 8I10)": 1177},
      {"substance": "468 (SCLCECGSLLTEC; epitope peptide) [compound 468]", "Signal (peptides that bind to 23K21 and 8I10)": 1244},
      {"substance": "531 (MSLCTEVGMSLLTEC; epitope peptide) [compound 531]", "Signal (peptides that bind to 23K21 and 8I10)": 970},
      {"substance": "305 (CSCLCEVGMSLLTEC; epitope peptide) [compound 305]", "Signal (peptides that bind to 23K21 and 8I10)": 1925},
      {"substance": "367 (SLCTEVGSLLTEC; epitope peptide) [compound 367]", "Signal (peptides that bind to 23K21 and 8I10)": 1495},
      {"substance": "382 (CSLLTECGSLLTEV; epitope peptide) [compound 382]", "Signal (peptides that bind to 23K21 and 8I10)": 1393},
      {"substance": "567 (SLLTECGCSCLCEV; epitope peptide) [compound 567]", "Signal (peptides that bind to 23K21 and 8I10)": 879},
      {"substance": "485 (CSLLTECGMCLCTCV; epitope peptide) [compound 485]", "Signal (peptides that bind to 23K21 and 8I10)": 1168},
      {"substance": "523 (SLLTEFETPIRNEWGCRCNDSSD; epitope peptide) [compound 523]", "Signal (peptides that bind to 23K21 and 8I10)": 1009},
      {"substance": "475 (MSLLTECGMSLCTEV; epitope peptide) [compound 475]", "Signal (peptides that bind to 23K21 and 8I10)": 1212},
      {"substance": "332 (SALTEVETPIRNEWGCRCNDSSD; epitope peptide) [compound 332]", "Signal (peptides that bind to 23K21 and 8I10)": 1689},
      {"substance": "589 (CSLLTECGMSCLTEV; epitope peptide) [compound 589]", "Signal (peptides that bind to 23K21 and 8I10)": 846},
      {"substance": "355 (SCLCECGCSLLTEV; epitope peptide) [compound 355]", "Signal (peptides that bind to 23K21 and 8I10)": 1555},
      {"substance": "505 (SLLTEKETPIRNEWGCRCNDSSD; epitope peptide) [compound 505]", "Signal (peptides that bind to 23K21 and 8I10)": 1055},
      {"substance": "521 (SLLTAVETPIRNEWGCRCNDSSD; epitope peptide) [compound 521]", "Signal (peptides that bind to 23K21 and 8I10)": 1012},
      {"substance": "282 (CSCLCEVGMSCLCEC; epitope peptide) [compound 282]", "Signal (peptides that bind to 23K21 and 8I10)": 2705},
      {"substance": "574 (CLLTEVGSLLTEC; epitope peptide) [compound 574]", "Signal (peptides that bind to 23K21 and 8I10)": 866},
      {"substance": "322 (SKLTEVETPIRNEWGCRCNDSSD; epitope peptide) [compound 322]", "Signal (peptides that bind to 23K21 and 8I10)": 1784},
      {"substance": "526 (MSLLTECGMSCLCEC; epitope peptide) [compound 526]", "Signal (peptides that bind to 23K21 and 8I10)": 992},
      {"substance": "308 (MSLCTEVGMCLCTCV; epitope peptide) [compound 308]", "Signal (peptides that bind to 23K21 and 8I10)": 1902},
      {"substance": "479 (SLLTEDETPIRNEWGCRCNDSSD; epitope peptide) [compound 479]", "Signal (peptides that bind to 23K21 and 8I10)": 1196},
      {"substance": "550 (SLLTENETPIRNEWGCRCNDSSD; epitope peptide) [compound 550]", "Signal (peptides that bind to 23K21 and 8I10)": 914},
      {"substance": "469 (MSLLTECGMSLLTEC; epitope peptide) [compound 469]", "Signal (peptides that bind to 23K21 and 8I10)": 1236},
      {"substance": "530 (SLLTESETPIRNEWGCRCNDSSD; epitope peptide) [compound 530]", "Signal (peptides that bind to 23K21 and 8I10)": 974},
      {"substance": "463 (CSLLTECGSLLTCV; epitope peptide) [compound 463]", "Signal (peptides that bind to 23K21 and 8I10)": 1258},
      {"substance": "348 (SLLTECGCSLLTEV; epitope peptide) [compound 348]", "Signal (peptides that bind to 23K21 and 8I10)": 1597},
      {"substance": "298 (SLCTEVGSCLCEC; epitope peptide) [compound 298]", "Signal (peptides that bind to 23K21 and 8I10)": 1967},
      {"substance": "378 (SLLTECGSLLTEC; epitope peptide) [compound 378]", "Signal (peptides that bind to 23K21 and 8I10)": 1426},
      {"substance": "471 (SLLTEEETPIRNEWGCRCNDSSD; epitope peptide) [compound 471]", "Signal (peptides that bind to 23K21 and 8I10)": 1220},
      {"substance": "149 (CTEVETPIRNEWGSRSCLTEVETPIRNEWGSRC; epitope peptide) [compound 149]", "Signal (peptides that bind to 23K21 and 8I10)": 1348},
      {"substance": "340 (MSCLCECGCSLLTEC; epitope peptide) [compound 340]", "Signal (peptides that bind to 23K21 and 8I10)": 1652},
      {"substance": "490 (SVLTEVETPIRNEWGCRCNDSSD; epitope peptide) [compound 490]", "Signal (peptides that bind to 23K21 and 8I10)": 1109},
      {"substance": "489 (MSLLTECGMCLLTEV; epitope peptide) [compound 489]", "Signal (peptides that bind to 23K21 and 8I10)": 1111},
      {"substance": "335 (CSCLCEVGCSLLTEC; epitope peptide) [compound 335]", "Signal (peptides that bind to 23K21 and 8I10)": 1677},
      {"substance": "507 (SLCTEVETPIRNEWGCRCNDSSD; epitope peptide) [compound 507]", "Signal (peptides that bind to 23K21 and 8I10)": 1050},
      {"substance": "481 (CSLLTECGMSLCTEV; epitope peptide) [compound 481]", "Signal (peptides that bind to 23K21 and 8I10)": 1187},
      {"substance": "472 (SLLTECGSLCTEV; epitope peptide) [compound 472]", "Signal (peptides that bind to 23K21 and 8I10)": 1218},
      {"substance": "540 (SLLTEHETPIRNEWGCRCNDSSD; epitope peptide) [compound 540]", "Signal (peptides that bind to 23K21 and 8I10)": 942},
      {"substance": "315 (MCLCTCVGCSLLTEC; epitope peptide) [compound 315]", "Signal (peptides that bind to 23K21 and 8I10)": 1823},
      {"substance": "344 (SMLTEVETPIRNEWGCRCNDSSD; epitope peptide) [compound 344]", "Signal (peptides that bind to 23K21 and 8I10)": 1622},
      {"substance": "480 (SLLTECGCLCTCV; epitope peptide) [compound 480]", "Signal (peptides that bind to 23K21 and 8I10)": 1193},
      {"substance": "561 (SCLTEVETPIRNEWGCRCNDSSD; epitope peptide) [compound 561]", "Signal (peptides that bind to 23K21 and 8I10)": 892},
      {"substance": "554 (CLLTEVGSLLTCV; epitope peptide) [compound 554]", "Signal (peptides that bind to 23K21 and 8I10)": 902},
      {"substance": "486 (SLFTEVETPIRNEWGCRCNDSSD; epitope peptide) [compound 486]", "Signal (peptides that bind to 23K21 and 8I10)": 1156},
      {"substance": "376 (CSLLTECGMSLLTEC; epitope peptide) [compound 376]", "Signal (peptides that bind to 23K21 and 8I10)": 1445},
      {"substance": "391 (SNLTEVETPIRNEWGCRCNDSSD; epitope peptide) [compound 391]", "Signal (peptides that bind to 23K21 and 8I10)": 1345},
      {"substance": "494 (SLLTEQETPIRNEWGCRCNDSSD; epitope peptide) [compound 494]", "Signal (peptides that bind to 23K21 and 8I10)": 1102}
    ]},
    {"tested_on": "anti-M2 human monoclonal antibody Z3G1", "type": "binding", "values": [
      {"substance": "1575 (WLLTEVETPIRNEWGCRCNDSSD; epitope peptide) [compound 1575]", "Signal (peptides that show specific binding to Z3G1)": 2180}
    ]}
  ]
}
